{
  "source": "BindingDB's records for doi:10.7270/Q27P8WVP",
  "about": "(Nmmlsc, 2010)",
  "target": "Regulator of G-protein signaling 4 (Homo sapiens, UniProt P49798)",
  "sequence (P49798 whole entry)": "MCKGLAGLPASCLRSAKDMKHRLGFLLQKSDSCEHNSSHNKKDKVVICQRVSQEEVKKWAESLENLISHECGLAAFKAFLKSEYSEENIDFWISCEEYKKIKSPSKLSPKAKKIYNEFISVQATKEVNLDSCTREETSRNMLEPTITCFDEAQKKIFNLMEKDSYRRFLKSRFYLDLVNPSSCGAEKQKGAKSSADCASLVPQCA",
  "experiment": "small molecules altering RGS4 interaction with Galphao – biochemical, multiplexed bead flow cytometry, SAR compounds, SAR follow-up (AID 2295)",
  "data": [
    {"smiles": "NS(=O)(=O)c1ccc(N=NCc2ccc(O)c(O)c2O)c([N+](=O)[O-])c1", "note": "[4-[[(E)-(2,3-dihydroxy-4-oxo-1-cyclohexa-2,5-dienylidene)methyl]hydrazo]-3-nitrobenzenesulfonamide]", "values": [
      {"measurement": "Ki", "value": 1020, "unit": "nM"}
    ]}
  ]
}
